{"source": "patent US11351155B2", "about": "“Compositions and methods of modulating s-nitrosylation” (CASE WESTERN RESERVE UNIVERSITY, priority 2014, dated 2022)", "key": {"[1]": {"molecular_target": "T1, Erg10 (acetoacetyl-CoA thiolase) (Saccharomyces cerevisiae, UniProt P41338)", "T1 construct": "Erg10 activity was assayed in extracts of WT yeast in the presence or absence of SNO-CoA; endogenous in cells; host or cells: wild-type S. cerevisiae lysate/extract", "test": "Assay for acetoacetyl-CoA thiolase (Erg10) activity", "format": "biochemical, yeast (S. cerevisiae)", "settings": "for Effect on Erg10 thiolase activity: yeast extracts and purified protein (FIG. 4D, E)", "protocol": "Acetoacetyl-CoA thiolase activity was assayed in the physiological forward direction (2 acetyl-CoA→acetoactyl-CoA+CoA-SH) by following the formation of CoA-SH with 5,5′-dithiobis(2-nitrobenzoic acid) (DTNB) at 412 nm, as outlined recently for assay of HMG-CoA synthase activity. This approach avoids background absorbance in lysates and interference from added SNO-CoA in the reverse-reaction assay of acetoacetyl-CoA consumption at 300 nm (acetoacetyl-CoA+CoA-SH→2 acetyl-CoA). The assay was performed in 20 mM tris pH 8.0, containing 0.1 mM EDTA and 0.1 mM DTPA. The reaction mixture (1 ml) contained yeast lysate and 100 μM acetyl-CoA. Reaction without the addition of acetyl-CoA was used as background control. In some experiments, various concentrations of GSNO or SNO-CoA were also added. The reaction was monitored following the addition of 0.5 mM DTNB for 3 min at 412 nm. Thiolase activity was determined using rates between 1 and 3 minutes."}, "[2]": {"tested_on": "lysates of wild-type (WT) yeast", "test": "SNO-RAC/LC-MS/MS identification of SNO-proteins in treated yeast lysates", "format": "biochemical, yeast (S. cerevisiae)", "settings": "lysates treated with 60 μM for 10 min", "protocol": "For analysis in yeast, cells were grown to absorbance 600 nm=1.0 and lysed by bead beating in lysis buffer (20 mM bis-tris propane, pH 7.0, 50 mM NaCl, 100 mM EDTA, 100 μM DTPA, 1 mM PMSF and protease inhibitor cocktail (Roche)). The lysate was centrifuged at 20,000 g for 10 min and the supernatant was adjusted to 1 mg/ml protein and retained for analysis. For analysis of SNO-proteins by mercury-coupled-photolysis-chemiluminescence, samples were processed as previously described. For SNO-RAC, some samples (1 mg/ml) were left untreated or treated for 10 min with 60 μM SNO-CoA±100 μM NADPH. The reaction was stopped by adding 3 volumes of ice-cold acetone, followed by precipitation at −20° C. for 20 min. […] Eluates were analyzed by SDS-PAGE followed by Western blotting for erg10 (see below) or, for mass spectrometric analysis, individual lanes were excised from the gel and subjected to trypsin digest prior to processing for LC/MS-MS (see below). […]\nPrior to analysis by LC-MS/MS, samples were passed through a C18 spin column (Thermo Pierce, Rockford, Ill.) and reconstituted in 0.1% formic acid. […] For peptide identification and quantification using iTRAQ reporter ions, MS analysis was performed using a hybrid linear ion trap Orbitrap Velos mass spectrometer (LTQ-Orbitrap Velos, Thermo, Waltham, Mass.). […]"}, "[3]": {"molecular_target": "T2, Adh6 (Saccharomyces cerevisiae, UniProt Q04894)", "T2 construct": "endogenous in cells; host or cells: S. cerevisiae cells; five-step chromatographic purification from crude extract", "T2 sequence (Q04894 1-360)": "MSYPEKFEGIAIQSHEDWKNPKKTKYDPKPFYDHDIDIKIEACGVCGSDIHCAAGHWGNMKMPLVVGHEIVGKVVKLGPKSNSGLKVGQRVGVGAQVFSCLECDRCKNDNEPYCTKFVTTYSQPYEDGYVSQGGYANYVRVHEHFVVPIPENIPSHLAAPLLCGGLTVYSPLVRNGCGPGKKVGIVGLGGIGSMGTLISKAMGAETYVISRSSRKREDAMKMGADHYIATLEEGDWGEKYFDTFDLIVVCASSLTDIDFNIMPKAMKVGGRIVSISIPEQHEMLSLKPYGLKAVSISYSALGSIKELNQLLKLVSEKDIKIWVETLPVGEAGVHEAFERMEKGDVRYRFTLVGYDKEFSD", "test": "Kinetic analysis and substrate specificity of SNO-CoA reductase activity of purified Adh6", "format": "biochemical, yeast (S. cerevisiae)", "settings": "purified Adh6 20 nM, NADPH 100 μM, substrate 100 μM (FIG. 2D)", "protocol": "(§1) Kinetic analysis was carried out with purified Adh6 and AKR1A1. The reactions contained a fixed concentration of NADPH (100 μM) and several concentrations of SNO-CoA.\n(§2) Kinetic analysis was carried out employing assay conditions as above. For Km determination, reactions (4-5 replicates) were performed with a fixed amount of purified Adh6, 100 μM NADPH and SNO-CoA concentrations of 16-375 μM. Initial rates were calculated from the absorbance decrease at 340 nm using a combined extinction coefficient of 7.06 mM^−1 cm^−1 for SNO and NADPH. The kcat was determined at saturating substrate concentrations."}, "[4]": {"substrate": "CC(C)(COP(=O)(O)OP(=O)(O)OC[C@H]1O[C@@H](n2cnc3c(N)ncnc32)[C@H](O)[C@@H]1OP(=O)(O)O)[C@@H](O)C(=O)NCCC(=O)NCCSN=O", "test": "Kinetic analysis of SNO-CoA reductase activity of purified AKR1A1", "format": "biochemical, bovine", "settings": "other: purified AKR1A1, 100 μM NADPH; pH 7.0", "protocol": "as §1\nKinetic analyses were carried out in 50 mM phosphate buffer, pH 7.0, containing 100 μM EDTA and DTPA. For Km determination, reactions (2-4 replicates) were performed with a fixed amount of purified AKR1A1, 100 μM NADPH and 2-500 μM SNO-CoA. Initial rates were calculated from the absorbance decrease at 340 nm. The kcat was determined at saturating substrate concentrations."}, "[5]": {"substrate": "CC(C)(COP(=O)(O)OP(=O)(O)OC[C@H]1O[C@@H](n2cnc3c(N)ncnc32)[C@H](O)[C@@H]1OP(=O)(O)O)[C@@H](O)C(=O)NCCC(=O)NCCSN=O", "test": "Kinetic analysis and substrate specificity of SNO-CoA reductase activity of purified Adh6", "format": "biochemical, yeast (S. cerevisiae)", "settings": "other: purified Adh6, 100 μM NADPH", "protocol": "as §1, §2"}}, "data": [{"molecule": "CC(C)(COP(=O)(O)OP(=O)(O)OC[C@H]1O[C@@H](n2cnc3c(N)ncnc32)[C@H](O)[C@@H]1OP(=O)(O)O)[C@@H](O)C(=O)NCCC(=O)NCCSN=O", "note": "[SNO-CoA, S-nitroso-CoA]", "values": [{"measurement": "IC50", "setting": "[1]; purified protein, read-out: IC50 for inhibition of Erg10 thiolase activity", "value": 4, "unit": "µM"}, {"measurement": "Effect on Erg10 thiolase activity", "setting": "[1]", "value": "potently inhibited"}, {"measurement": "Number of SNO-proteins identified", "setting": "[2]", "value": 345}]}, {"molecule": "N[C@@H](CSN=O)C(=O)O", "note": "[CysNO, S-nitroso-cysteine]", "values": [{"measurement": "Metabolism by Adh6 (NADPH consumption)", "setting": "[3]", "value": "does not metabolize"}]}, {"molecule": "CC(C)(COP(=O)(O)OP(=O)(O)OC[C@H]1O[C@@H](n2cnc3c(N)ncnc32)[C@H](O)[C@@H]1OP(=O)(O)O)[C@@H](O)C(=O)NCCC(=O)NCCSC(=O)CCC(=O)O", "note": "[succinyl-CoA]", "values": [{"measurement": "Effect on Erg10 thiolase activity", "setting": "[1]", "value": "neither GSNO (FIG. 4D) nor succinyl-CoA (a CoA analogue) (FIG. 4E) had a significant effect"}]}, {"molecule": "N[C@@H](CCC(=O)N[C@@H](CSN=O)C(=O)NCC(=O)O)C(=O)O", "note": "[GSNO, S-nitrosoglutathione]", "values": [{"measurement": "Effect on Erg10 thiolase activity", "setting": "[1]", "value": "neither GSNO (FIG. 4D) nor succinyl-CoA (a CoA analogue) (FIG. 4E) had a significant effect"}, {"measurement": "Metabolism by Adh6 (NADPH consumption)", "setting": "[3]", "value": "specific for SNO-CoA versus GSNO"}]}, {"molecule": "AKR1A1 (Bos taurus) (protein, Bovine kidney tissue (˜50 g) was suspended in 100 ml of lysis buffer; tissue Rockland Immunochemicals Inc. (tissue supplier); host or cells: bovine kidney) MAASCILLHTGQKMPLIGLGTWKSDPGQVKAAIKYALSVGYRHIDCAAIYGNETEIGEALKENVGPGKLVPREELFVTSKLWNTKHHPEDVEPALRKTLADLQLEYLDLYLMHWPYAFERGDSPFPKNADGTIRYDSTHYKETWRALEALVAKGLVRALGLSNFNSRQIDDVLSVASVRPAVLQVECHPYLAQNELIAHCQARNLEVTAYSPLGSSDRAWRDPEEPVLLKEPVVLALAEKHGRSPAQILLRWQVQRKVSCIPKSVTPSRILENIQVFDFTFSPEEMKQLDALNKNLRFIVPMLTVDGKRVPRDAGHPLYPFNDPY", "values": [{"measurement": "Km", "setting": "[4]", "value": "20.5 ± 1.8", "unit": "µM"}, {"measurement": "kcat", "setting": "[4]", "value": "10.4 ± 0.396", "unit": "s⁻¹"}]}, {"molecule": "Adh6 (Saccharomyces cerevisiae S288C) (protein, endogenous in cells; host or cells: S. cerevisiae cells; five-step chromatographic purification from crude extract) MSYPEKFEGIAIQSHEDWKNPKKTKYDPKPFYDHDIDIKIEACGVCGSDIHCAAGHWGNMKMPLVVGHEIVGKVVKLGPKSNSGLKVGQRVGVGAQVFSCLECDRCKNDNEPYCTKFVTTYSQPYEDGYVSQGGYANYVRVHEHFVVPIPENIPSHLAAPLLCGGLTVYSPLVRNGCGPGKKVGIVGLGGIGSMGTLISKAMGAETYVISRSSRKREDAMKMGADHYIATLEEGDWGEKYFDTFDLIVVCASSLTDIDFNIMPKAMKVGGRIVSISIPEQHEMLSLKPYGLKAVSISYSALGSIKELNQLLKLVSEKDIKIWVETLPVGEAGVHEAFERMEKGDVRYRFTLVGYDKEFSD", "values": [{"measurement": "Km", "setting": "[5]", "value": "180.5 ± 16.8", "unit": "µM"}, {"measurement": "kcat", "setting": "[5]", "value": "43.275 ± 1.845", "unit": "s⁻¹"}]}]}
